Format in all cases: cell-based, human
In experiment [1] the test system is SH-SY5Y cells. In words: MTT assay, Aβ40 induced cytotoxicity. The note with it: Aβ40 10 μM, 24 h. The procedure:
1.3. Methods for in vitro cell-based experiments
The human neuroblastoma cell line SH-SY5Y was obtained from the National Centre for Cell Science (NCCS, Pune, India). The cells were grown in DMEM, and Ham’s F12 nutrient mixture (DMEM/F12; 1:1) supplemented with 10% fetal bovine serum (FBS; Gibco, USA), 50 U/ml penicillin, 100 μg/ml streptomycin and incubated in a humidified atmosphere of 5% CO2 at 37°C. All experiments were carried […]
Each experiment was performed
Methylthiazol tetrazolium (MTT) reduction assay was used to measure the viability of cells.10 The SH-SY5Y cells were seeded at a density of 1.5 × 10^4 cells/well in a 96 well plate. To assess self-toxicity, cells […]
period 20µl of MTT reagent (5mg/ml in DPBS) was added to each well and incubated in a humidified atmosphere of 5% CO2 at 37°C for 4h. Formazan crystals (purple) are formed by the metabolically active cells by cleaving the yellow tetrazolium salt. After the incubation period, the MTT solution was aspirated, and 150µL of dimethyl sulfoxide (DMSO) was added to each well to dissolve the formazan precipitate.
For orientation: Tetrazolium dyes change colour on reduction, which living cells bring about.

Experiment [2] relates to SH-SY5Y cells. Nature of the experiment: LDH release assay, Aβ40 induced membrane damage. The conditions noted are these: Aβ40 10 μM, 24 h. The procedure: Then, we explored the membrane damage induced by Aβ40 (ref. [45] and [46]) using the lactate dehydrogenase (LDH) assay.
The release of cytosolic enzyme lactate dehydrogenase (LDH) into the culture medium indicates cell death due to the disruption of membrane integrity. Cell deathwas assessed by measuring LDH release in the culture medium by photocolorimetric kit according to the manufacturer’s protocol (Abcam, Cambridge, MA, USA). An increase in the number of lysed cell increases LDH activity in the culture medium proportionately. […]
Next, 50 µl culture supernatant was collected from each well and added to an assay mixture that was prepared by adding an equal amount of LDH substrate, co-factors, and dye solutions and incubated in the dark for 40mins at 37°C. […] Absorbance was measured at 490 nm with a reference filter of 660nm. […]
Generation of intracellular reactive oxygen species was measured by a spectrofluorimetric method using peroxide sensitive fluorescent probe 2′,7′-Dichlorofluorescin diacetate (DCFH-DA).11 In brief, SH-SY5Y […]
or both for 24h. […] Cells were then washed twice with PBS, and fluorescent intensity was measured by using a fluorescence microplate reader (Bio Rad, CA, USA) with an excitation filter of 490 nm and an emission filter of 520 nm.
A general note: Release of lactate dehydrogenase indicates damage to the cell membrane.

Another experiment relates to cleaved caspase-3. Nature of the experiment: Western blot, cleaved caspase-3. As for the experimental part: e. Measurement of intracellular calcium (Ca 2+)
Ca2+sensitive dye Fura-2AM was used to measure free intracellular Ca2+level in SH-SY5Y cell suspension by the previously described method.12 Following treatment with the respective drug, Fura-2 AM (Cayman, USA) at a concentration of 5 µM was added to the culture medium and incubated at 37°C for 45 min. Next, Krebs-Ringer-HEPES (KRH) buffer (135mM NaCl, 5mM KCl, 1mM MgSO4, 0.4mM KH2PO4, 1mM CaCl2, 5.5mM glucose, 20mM HEPES, pH 7.4) was used to wash each plate twice containing (1×10^6cells). Fluorescent microplate reader (FLX 800, Biotek, USA) was used to measure the fluorescence intensity with an excitation and emission spectra of […], respectively. Results are Mean±SEM of quadruplicate measurements from three separate experiments and expressed in the increase in percent relative fluorescent unit (RFU) relative to the baseline reading.
Western blot analysis was performed to measure Bax, Bcl-2, cleaved Caspase 9 and cleaved Caspase 3, pro and anti-apoptotic proteins expression. About 5× 10^6 cells were washed with PBS twice following […]
overnight. […] The optical density (OD) value of each band was analyzed by the electrophoresis image analysis system (Smartview 2001, S/N: SV-0002202, Japan) and normalized against the corresponding β-actin band. […]

Data on one substance can be found in article PMC8179358, “An explicitly designed paratope of amyloid-β prevents neuronal apoptosis in vitro and hippocampal damage in rat brain” (Chemical Science, 2020).

Take “Aβ40: commercially available Aβ40 peptide”: the “cell population after Aβ40 alone” value with SH-SY5Y cells [1] is reported as “significant reduction in the cell population”. Further, the “LDH release by Aβ40 alone” value in the experiment on SH-SY5Y cells [2] is on record as “released a significant amount of cytosolic LDH”. For the same substance, in the experiment on cleaved caspase-3, the “caspase-3 activation by Aβ40 alone” value was “leads to activation of caspase-3 directed DNA breakage, nuclear chromatin condensation, and neurocellular apoptosis”.
